Patent publication US20240207454A1, “NEURO-BEHAVIORAL ASSAY FOR PHYSIOLOGICAL EVALUATION OF WATER-SOLUBLE ANESTHETICS” (Northeastern University, priority 2022, published 2024)
Read-outs that look alike come from different tables or passages of the source.

Legend:
[1] = PubChem; cited from earlier work
[2] = system: Apteronotus leptorhynchus; experiment: Neuro-behavioral assay: effect on EOD frequency; assay type: in vivo; conditions: for EOD frequency lower than median baseline frequency immediately after return to isolation tank (range among fish): 2.5% urethane or 0.02% MS-222 immersion until fin and opercular movement ceased; for EOD frequency lower than median baseline frequency immediately after return to isolation tank (range among fish) / EOD frequency lower than median baseline frequency immediately after return to isolation tank (median) / Median EOD frequency change, 30-min interval before vs 15-min interval after start of anesthesia: Median: n=8 fish; for EOD frequency lower than median baseline frequency immediately after return to isolation tank (median): 2.5% urethane or 0.02% MS-222 immersion; for Recovery model parameter a (ratio EOD frequency vs baseline at t=0), estimate / Recovery model parameter b, estimate / Recovery model parameter c, estimate / Recovery model parameter d, estimate: robust nonlinear regression, Equation 1, 2.5% urethane or 0.02% MS-222; for Recovery model (Eq. 3) parameter a: normalized frequency
Excerpt: For the assay, adult brown ghost knifefish (Apteronotus leptorhynchus; Gymnotiformes, Teleostei), with total lengths of approximately 12-15 cm, are used. The fish are imported from their natural habitat in South and Central America.
At least 1 week before using the assay for the first run, the fish is transferred from a community tank to an isolation tank (50 cm×30 cm×30 cm) equipped with aquarium thermostat heaters and air-driven corner filters. The fish is kept in aquarium water prepared by adding a mixture of inorganic salts (81 mmol/L MgSO4·7H2O; 107 mmol/L KCl; 12 mmol/L NaH2PO4·2H2O; 732 mmol/L CaSO4·2H2O) to deionized water until a water conductivity of approximately 150-300 μS/cm is reached. Water temperature, determined during the experiments every 10 min with a calibrated high-precision (accuracy+0.05° C.) digital thermometer, is kept in the range of 25.0-28.0° C. across all assays. Variation is limited to 1.0° C. in an individual assay. A 12:12 h light:dark photoperiod is maintained with a timer. The fish are fed red mosquito larvae daily, after the assay run on that day has been completed.
In each isolation tank, an opaque cylindrical plastic tube (length: 190 mm; inner diameter: 38 mm; outer diameter: 42 mm) provides shelter and is readily accepted by the fish, particularly during the light phase, when individuals of this nocturnal species spend most of the time in shelter places. A pair of stainless-steel electrodes is mounted on the inside of each tube (see section 4.1.2, ‘EOD recording,’ below).
Differential recording of the fish's EOD is done through the pair of stainless-steel electrodes built into the shelter tube (FIG. 1). […] This allows the fish's EOD to be recorded continuously without interruptions. At the same time, mesh size is chosen such that sustained water flow through the tube is ensured. A strip of stainless steel is placed in the tank to serve as a ground electrode.
The signal is AC amplified (gain: 30×; low-pass filter: none; high-pass filter: 200 Hz) and then digitized at a sampling rate of 50 kHz.
The sampled time-voltage data (ti, vi), i=1, . . . , N, are filtered in subsequent, 1-s-long windows using a bandpass filter with frequency band [0.8, 1.2]×f0, where f0 is the fundamental frequency determined from the power spectrum of the signal within the associated time window.
The filtered time series data (ti, Vi), i=1, . . . , N, are further processed to determine the EOD frequency at a higher time resolution. First, tuple j containing the indices of all instants where the filtered signal changes sign to a positive value is determined:
Then, tuple t^+ of time instances when the signal crosses the time axis upwards is calculated using interpolation:
Here M=|j| denotes the number of elements in j (the number of all crossings). Finally, time-frequency pairs (Tk, fk) are computed as
for k=1, . . . , M−m. Here m=10 is the number of averaged time periods used for EOD frequency calculation.
Since the EOD frequency of A. leptorhynchus is temperature dependent, all measured frequencies are adjusted to a reference temperature (arbitrarily chosen to be 26° C.) so that discharge frequencies at different water temperatures can be compared. This adjustment of a frequency f1 (in Hz) measured at a temperature T1 (in ° C.) to the reference temperature T2=26° C. is calculated as
where f2 is the expected frequency at T2 and Q10=1.56, as determined empirically.
The experimental design is outlined in FIG. 2. To determine the baseline EOD frequency, the fish's EOD was recorded for 30 min. Then, the fish was transferred into a glass beaker containing either 2.5% urethane (Acros Organics, New Jersey, USA) or 0.02% MS-222 (Western Chemical, Washington, USA), each dissolved in water from the fish's isolation tank. As a control, the fish was moved into an identical glass beaker containing aquarium water only. […]

GABAA current = conditions: rat trigeminal ganglia; cited from earlier work
[3] = molecular target: T1, GABAA receptor subtype α1β2γ2 (Homo sapiens, UniProt P14867+P18507+P47870); conditions: human embryonic kidney 293 cells expressing α1β2γ2; cited from earlier work
T1 construct: host or cells: human embryonic kidney 293 cells (heterologous expression)

Nav 1.7 = molecular target: T2, Nav 1.7 (Homo sapiens, UniProt Q15858); conditions: Nav 1.7-transfected CHO cells; cited from earlier work
T2 construct: host or cells: CHO cells (transfected)

GABAA receptors = conditions: receptors expressed in Xenopus oocytes; cited from earlier work
red garra (Garra rufa) = conditions: G. rufa, cited from earlier work
[4] = system: epileptiform field potentials and spreading depression; conditions: rat neocortical and hippocampal slices; cited from earlier work
zebrafish (Danio rerio) = conditions: 60 μL/L eugenol, D. rerio; cited from earlier work

T1 sequence (P14867 28-456): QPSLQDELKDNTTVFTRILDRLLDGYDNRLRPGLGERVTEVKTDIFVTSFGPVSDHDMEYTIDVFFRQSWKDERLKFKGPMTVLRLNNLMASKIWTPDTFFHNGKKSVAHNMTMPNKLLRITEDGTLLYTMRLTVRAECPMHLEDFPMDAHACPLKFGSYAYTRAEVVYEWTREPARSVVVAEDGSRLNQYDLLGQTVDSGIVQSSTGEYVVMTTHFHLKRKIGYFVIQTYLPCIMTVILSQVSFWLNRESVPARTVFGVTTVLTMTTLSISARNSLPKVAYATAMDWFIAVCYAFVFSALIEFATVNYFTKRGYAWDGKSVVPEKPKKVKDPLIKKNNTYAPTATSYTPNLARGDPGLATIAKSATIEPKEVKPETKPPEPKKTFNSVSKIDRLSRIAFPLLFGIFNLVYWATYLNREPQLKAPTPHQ
T1 sequence (P47870 25-512 limits assumed): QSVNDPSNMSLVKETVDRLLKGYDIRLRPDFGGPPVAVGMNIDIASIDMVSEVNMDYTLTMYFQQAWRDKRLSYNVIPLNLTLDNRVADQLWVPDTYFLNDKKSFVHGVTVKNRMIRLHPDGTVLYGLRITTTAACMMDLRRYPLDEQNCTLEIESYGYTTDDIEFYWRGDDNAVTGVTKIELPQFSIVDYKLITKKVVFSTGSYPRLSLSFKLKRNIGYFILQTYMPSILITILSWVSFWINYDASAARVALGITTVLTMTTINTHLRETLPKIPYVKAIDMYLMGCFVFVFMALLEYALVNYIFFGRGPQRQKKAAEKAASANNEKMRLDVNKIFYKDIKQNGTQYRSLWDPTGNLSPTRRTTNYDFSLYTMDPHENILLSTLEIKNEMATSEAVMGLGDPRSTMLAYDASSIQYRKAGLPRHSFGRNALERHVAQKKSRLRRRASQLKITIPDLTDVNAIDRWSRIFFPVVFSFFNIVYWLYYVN
T1 sequence (P18507 40-475): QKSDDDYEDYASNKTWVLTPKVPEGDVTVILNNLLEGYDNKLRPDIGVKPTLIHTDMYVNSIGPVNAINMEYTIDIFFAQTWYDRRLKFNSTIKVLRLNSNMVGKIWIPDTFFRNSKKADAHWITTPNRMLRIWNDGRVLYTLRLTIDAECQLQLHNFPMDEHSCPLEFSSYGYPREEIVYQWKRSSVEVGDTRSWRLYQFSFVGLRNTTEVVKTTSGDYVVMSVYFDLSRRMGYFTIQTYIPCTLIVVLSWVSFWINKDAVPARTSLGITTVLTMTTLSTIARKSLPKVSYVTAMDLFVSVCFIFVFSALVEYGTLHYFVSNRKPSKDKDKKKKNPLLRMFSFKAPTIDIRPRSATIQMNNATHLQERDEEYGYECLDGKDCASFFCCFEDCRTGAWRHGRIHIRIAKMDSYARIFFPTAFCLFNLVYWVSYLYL
T2 sequence (Q15858 whole entry): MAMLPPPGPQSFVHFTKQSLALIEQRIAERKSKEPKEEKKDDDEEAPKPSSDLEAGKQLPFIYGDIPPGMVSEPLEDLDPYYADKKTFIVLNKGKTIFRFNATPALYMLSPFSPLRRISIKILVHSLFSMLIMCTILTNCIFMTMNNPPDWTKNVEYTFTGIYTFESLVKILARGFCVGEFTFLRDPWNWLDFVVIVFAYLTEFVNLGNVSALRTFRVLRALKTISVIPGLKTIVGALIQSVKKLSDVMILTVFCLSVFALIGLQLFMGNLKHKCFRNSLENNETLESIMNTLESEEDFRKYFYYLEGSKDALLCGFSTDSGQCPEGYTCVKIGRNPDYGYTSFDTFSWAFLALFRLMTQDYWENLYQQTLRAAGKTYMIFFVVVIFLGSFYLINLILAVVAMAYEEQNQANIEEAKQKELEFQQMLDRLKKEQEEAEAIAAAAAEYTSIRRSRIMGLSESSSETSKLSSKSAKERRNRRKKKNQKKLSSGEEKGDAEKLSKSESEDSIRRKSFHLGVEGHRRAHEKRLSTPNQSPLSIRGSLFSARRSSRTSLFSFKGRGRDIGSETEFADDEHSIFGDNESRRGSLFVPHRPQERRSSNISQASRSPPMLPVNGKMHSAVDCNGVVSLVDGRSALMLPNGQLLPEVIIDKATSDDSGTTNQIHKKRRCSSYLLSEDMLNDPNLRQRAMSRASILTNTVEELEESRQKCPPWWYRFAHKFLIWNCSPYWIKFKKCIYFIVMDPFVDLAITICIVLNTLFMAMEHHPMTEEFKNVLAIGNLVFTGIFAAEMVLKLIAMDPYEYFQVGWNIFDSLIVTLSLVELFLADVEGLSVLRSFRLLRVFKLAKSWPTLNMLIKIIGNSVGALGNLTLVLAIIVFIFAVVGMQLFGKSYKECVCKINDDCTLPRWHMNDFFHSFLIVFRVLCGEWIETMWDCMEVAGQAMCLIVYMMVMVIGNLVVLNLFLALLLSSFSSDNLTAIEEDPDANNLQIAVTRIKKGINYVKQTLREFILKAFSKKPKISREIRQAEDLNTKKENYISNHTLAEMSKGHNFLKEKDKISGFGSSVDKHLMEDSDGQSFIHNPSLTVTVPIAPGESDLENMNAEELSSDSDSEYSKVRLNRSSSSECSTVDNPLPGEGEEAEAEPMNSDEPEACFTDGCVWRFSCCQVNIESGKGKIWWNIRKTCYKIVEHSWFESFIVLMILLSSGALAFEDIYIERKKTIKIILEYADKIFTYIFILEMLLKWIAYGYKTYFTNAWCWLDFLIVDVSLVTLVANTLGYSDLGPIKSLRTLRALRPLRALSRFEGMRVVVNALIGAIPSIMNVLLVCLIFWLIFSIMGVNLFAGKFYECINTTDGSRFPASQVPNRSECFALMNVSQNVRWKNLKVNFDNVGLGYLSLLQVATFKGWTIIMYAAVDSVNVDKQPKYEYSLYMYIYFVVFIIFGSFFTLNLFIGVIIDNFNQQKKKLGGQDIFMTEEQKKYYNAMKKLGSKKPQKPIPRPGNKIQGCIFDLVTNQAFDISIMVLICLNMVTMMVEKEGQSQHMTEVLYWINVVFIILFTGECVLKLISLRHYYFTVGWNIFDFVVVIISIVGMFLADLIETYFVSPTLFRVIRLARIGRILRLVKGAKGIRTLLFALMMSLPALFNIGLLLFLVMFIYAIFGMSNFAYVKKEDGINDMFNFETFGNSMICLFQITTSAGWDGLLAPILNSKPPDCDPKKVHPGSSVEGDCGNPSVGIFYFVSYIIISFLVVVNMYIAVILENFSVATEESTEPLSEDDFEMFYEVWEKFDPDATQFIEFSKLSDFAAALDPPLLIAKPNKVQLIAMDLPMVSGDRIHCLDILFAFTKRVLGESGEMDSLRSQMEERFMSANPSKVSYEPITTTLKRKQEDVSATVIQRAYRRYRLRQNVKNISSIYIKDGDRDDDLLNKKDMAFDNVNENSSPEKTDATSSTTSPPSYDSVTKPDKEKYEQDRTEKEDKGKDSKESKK

Q: Which “octanol-water partition coefficient log kow” value [1] does the source give for `CCOC(N)=O` [urethane] here?
A: −0.15

Q: What about the “EOD frequency lower than median baseline frequency immediately after return to isolation tank (range among fish)” value [2] of the same compound?
A: 104-142 Hz

Q: What about the “EOD frequency lower than median baseline frequency immediately after return to isolation tank (median)” value [2] of the same compound?
A: 133 Hz

Q: And the “EOD frequency drop during first phase of anesthesia” value ([2]; 2.5% urethane, first phase lasting roughly 30 s)?
A: approximately 100 Hz

Q: And the “Recovery model parameter a (ratio EOD frequency vs baseline at t=0), estimate” value ([2]; 8 fish)?
A: 0.8428 1

Q: And the “Recovery model parameter b, estimate” value ([2]; 8 fish)?
A: 21.333 min

Q: What about the “Recovery model parameter c, estimate” value ([2]; 8 fish) of the same compound?
A: 1.0228

Q: What about the “Recovery model parameter d, estimate” value ([2]; 8 fish) of the same compound?
A: -2.8717e-05 min⁻¹

Q: Which results are given for `C=CCc1ccc(O)c(OC)c1` [eugenol]?
A: octanol-water partition coefficient log kow [1]: 2.49; Effect on GABA-induced current (GABAA current): inhibits GABAA current in a reversible, dose-dependent manner; Effect on GABA-induced current [3]: inhibits GABAA current in a reversible, dose-dependent manner; Binding to voltage-gated sodium channels (Nav 1.7): preferentially binds to such channels in the inactivated state; Effect on GABAA-receptor response (GABAA receptors): potentiate GABAA-receptor response; Maximum EOD frequency drop vs median baseline frequency (median) ([2]; 60 μL/L eugenol, 5 min, 8 fish): 232 Hz; Maximum EOD frequency drop vs median baseline frequency (range) ([2]; 60 μL/L eugenol, 5 min, 8 fish): 184-277 Hz; Latency until fish started to lower the EOD frequency after transfer into the anesthetic solution ([2]; eugenol 30-60 μL/L): 1 to 2 min; Recovery model (Eq. 3) parameter b ([2]; eugenol 30 μL/L): 1.4568 min; Recovery model (Eq. 3) parameter c ([2]; eugenol 30 μL/L): 1.0089; Recovery model (Eq. 3) parameter d ([2]; eugenol 30 μL/L): -3.2299e-05 min⁻¹; Difference in the largest normalized EOD frequency drops: Median ([2]; eugenol 30 μL/L vs. Control): −0.1650; Median EOD frequency change, 30-min interval before vs 15-min interval after start of anesthesia: Median ([2]; eugenol 30 μL/L, 5 min): −48.18 Hz; Recovery model (Eq. 3) parameter a ([2]; eugenol 30 μL/L): 0.7465 1; Recovery model (Eq. 3) parameter b ([2]; eugenol 45 μL/L): 1.4064 min; Recovery model (Eq. 3) parameter c ([2]; eugenol 45 μL/L): 1.0084; Recovery model (Eq. 3) parameter d ([2]; eugenol 45 μL/L): -3.3821e-05 min⁻¹; Difference in the largest normalized EOD frequency drops: Median ([2]; eugenol 45 μL/L vs. 30 μL/L): −0.0715; Median EOD frequency change, 30-min interval before vs 15-min interval after start of anesthesia: Median ([2]; eugenol 45 μL/L, 5 min): −65.54 Hz; Recovery model (Eq. 3) parameter a ([2]; eugenol 45 μL/L): 0.6344 1; Recovery model (Eq. 3) parameter b ([2]; eugenol 60 μL/L): 1.5816 min; Recovery model (Eq. 3) parameter c ([2]; eugenol 60 μL/L): 1.0131; Recovery model (Eq. 3) parameter d ([2]; eugenol 60 μL/L): -6.2321e-05 min⁻¹; Difference in the largest normalized EOD frequency drops: Median ([2]; eugenol 60 μL/L vs. 45 μL/L): −0.0349; Median EOD frequency change, 30-min interval before vs 15-min interval after start of anesthesia: Median ([2]; eugenol 60 μL/L, 5 min): −88.65 Hz; Recovery model (Eq. 3) parameter a ([2]; eugenol 60 μL/L): 0.5649 1; Time to total loss of equilibrium and movement and absence of reaction to external stimuli (red garra (Garra rufa); 25 μL/L eugenol): approximately 3 min; Time to total loss of equilibrium and movement and absence of reaction to external stimuli (red garra (Garra rufa); 50 μL/L eugenol): ~1.5 min; Effect on epileptiform field potentials and spreading depression [4]: reversible and dose-dependent suppression; Time to a similar stage of anesthesia (zebrafish (Danio rerio)): ≤ 1.5 min

Q: Which results are given for `CCOC(=O)c1cccc(N)c1` [MS-222, 3-aminobenzoic acid ethyl ester methanesulfonate]?
A: EOD frequency lower than median baseline frequency immediately after return to isolation tank (range among fish) [2]: 129-279 Hz; EOD frequency lower than median baseline frequency immediately after return to isolation tank (median) [2]: 168 Hz; Recovery model parameter a (ratio EOD frequency vs baseline at t=0), estimate ([2]; 8 fish): 0.3584 1; Recovery model parameter b, estimate ([2]; 8 fish): 0.52 min; Recovery model parameter c, estimate ([2]; 8 fish): 1.0024; Recovery model parameter d, estimate ([2]; 8 fish): -9.0311e-06 min⁻¹
